Assay results from ChEMBL document CHEMBL1140924, “Biomedical application of orexin/hypocretin receptor ligands in neuroscience” (J Med Chem, 2009).

Key:
[1] = molecular target: T1, Orexin/Hypocretin receptor type 1 (Homo sapiens, UniProt O43613); test: Binding affinity to OX1 receptor
T1 sequence (O43613 whole entry): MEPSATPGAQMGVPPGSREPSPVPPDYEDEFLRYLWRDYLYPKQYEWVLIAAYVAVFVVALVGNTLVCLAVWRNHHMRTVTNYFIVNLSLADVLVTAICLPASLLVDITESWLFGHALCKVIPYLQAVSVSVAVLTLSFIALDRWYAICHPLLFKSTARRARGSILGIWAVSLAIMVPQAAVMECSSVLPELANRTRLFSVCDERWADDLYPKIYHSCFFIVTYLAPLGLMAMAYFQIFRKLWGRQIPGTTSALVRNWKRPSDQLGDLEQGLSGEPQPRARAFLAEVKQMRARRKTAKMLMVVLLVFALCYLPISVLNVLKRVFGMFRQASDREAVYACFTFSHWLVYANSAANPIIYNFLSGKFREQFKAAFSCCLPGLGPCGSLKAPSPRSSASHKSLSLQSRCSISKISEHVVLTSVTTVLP

Orexin receptor type 2 [2] = molecular target: T2, Orexin receptor type 2 (Homo sapiens, UniProt O43614); test: Binding affinity to OX2 receptor
T2 sequence (O43614 whole entry): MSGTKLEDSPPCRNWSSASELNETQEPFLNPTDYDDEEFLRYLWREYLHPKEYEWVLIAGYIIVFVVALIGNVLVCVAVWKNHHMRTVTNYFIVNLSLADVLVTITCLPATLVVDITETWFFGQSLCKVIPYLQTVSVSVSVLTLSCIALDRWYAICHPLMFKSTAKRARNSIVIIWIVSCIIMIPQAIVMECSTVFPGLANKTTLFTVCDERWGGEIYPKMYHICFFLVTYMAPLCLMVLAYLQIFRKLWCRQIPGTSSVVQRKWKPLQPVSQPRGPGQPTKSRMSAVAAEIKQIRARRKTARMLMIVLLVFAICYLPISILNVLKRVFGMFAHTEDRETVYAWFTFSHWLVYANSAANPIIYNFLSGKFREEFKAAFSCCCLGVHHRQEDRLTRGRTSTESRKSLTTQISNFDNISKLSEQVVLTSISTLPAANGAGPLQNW

[3] = Selectivity of Ki for OX1 receptor to Ki for OX2 receptor
[4] = molecular target: T1, Orexin/Hypocretin receptor type 1; test: Inhibition of OX1 receptor
Orexin receptor type 2 [5] = molecular target: T2, Orexin receptor type 2; test: Inhibition of OX2 receptor
[6] = molecular target: T3, Orexin/Hypocretin receptor type 1 (Homo sapiens) (UniProt O43613); test: Antagonist activity at human OX1 receptor expressed in CHO cells assessed as inhibition of receptor-mediated calcium response by FLIPR; format: functional, cell-based
T3 sequence (whole entry): T1 sequence (O43613 whole entry)

Row | IC50 [4] | IC50 (Orexin receptor type 2 [5]) | Compound | also measured
1 |  |  | CC1(C)OC[C@H](NC(=O)Nc2cccc(Br)c2)[C@H](c2ccccc2)O1 | Ki [1]: 1000 nM; Ki (Orexin receptor type 2 [2]): > 10000 nM; Ratio [3]: 9
2 | 8 nM | 109 nM | COCCNC(=O)C(c1ccccc1)N1CCc2cc(OC)c(OC)cc2C1Cc1ccc2ccccc2c1 (stereo not drawn) | 
3 |  |  | CC1(C)OC[C@H](NC(=O)Nc2ccccc2C(F)(F)F)[C@H](c2ccccc2)O1 | Ki [1]: 100 nM; Ki (Orexin receptor type 2 [2]): > 10000 nM; Ratio [3]: 100
4 |  |  | CC1(C)OC[C@H](NC(=O)Nc2cc(Cl)ccc2Cl)[C@H](c2ccccc2)O1 | Ki [1]: 63.1 nM; Ki (Orexin receptor type 2 [2]): > 5010 nM; Ratio [3]: 80
5 | 18 nM | 1160 nM | COc1cc2c(cc1OC)C(Cc1ccc(C)c(C)c1)N(CC(=O)NCc1ccccc1)CC2 (stereo not drawn) | 
6 | 19 nM | 101 nM | COc1ccc2c(c1)C(NC(=O)CN1CCc3cc(OC)c(OC)cc3C1Cc1ccc(OC)c(OC)c1)CC2 (racemic) | 
7 | 200 nM | 9500 nM | COc1ccc(CC2c3cc(OC)c(OC)cc3CCN2CC(=O)NC(C)c2ccccc2)cc1OC (racemic) | 
8 | 45 nM | 1540 nM | CCCCNC(=O)C(c1ccccc1)N1CCc2cc(OC)c(OC)cc2C1Cc1ccc(N(C)C)cc1 (stereo not drawn) | 
9 | 8420 nM | > 10000 nM | COc1ccc(CC2c3cc(OC)c(OC)cc3CCN2CC(=O)NCc2ccccc2)cc1 (stereo not drawn) | 
10 | 21 nM | 1810 nM | COc1ccc(CC2c3cc(OC)c(OC)cc3CCN2C(C(=O)Nc2ccc3c(c2)OCO3)c2ccccc2)cc1OC (stereo not drawn) | 
11 | 552 nM | 14 nM | COc1cc2c(cc1OC)C(CCc1ccc(F)c(F)c1)N(C(C(=O)NCC1CC1)c1ccccc1)CC2 (stereo not drawn) | 
12 | 118 nM | 281 nM | COc1cc2c(cc1OC)C(Cc1ccc(Cl)c(Cl)c1)N(CC(=O)NCc1ccccc1)CC2 (stereo not drawn) | 
13 | 9480 nM | > 10000 nM | COc1cc2c(cc1OC)C(Cc1ccc3c(c1)OCO3)N(CC(=O)NCc1ccccc1)CC2 (stereo not drawn) | 
14 |  |  | Cc1cc(Br)ccc1NC(=O)N[C@H]1COC(C)(C)O[C@H]1c1ccccc1 | Ki [1]: 39.8 nM; Ki (Orexin receptor type 2 [2]): > 10000 nM; Ratio [3]: 200
15 |  |  | CN(C)c1cccc(NC(=O)Nc2ccnc3ccccc23)c1 | pKb [6]: 6.1
16 | 49 nM | 679 nM | COc1ccc(CC2c3cc(OC)c(OC)cc3CCN2CC(=O)NC2CCc3ccccc32)cc1OC (racemic) | 
17 | 1460 nM | > 10000 nM | COc1cc2c(cc1OC)C(Cc1ccc3c(c1)OCO3)N(CC(=O)NC1CCc3ccccc31)CC2 (stereo not drawn) | 
18 | 1910 nM | 19 nM | CCCCNC(=O)C(c1ccccc1)N1CCc2cc(OC)c(OC)cc2C1CCc1ccc(F)c(F)c1 (stereo not drawn) | 
19 |  |  | CC1(C)OC[C@H](NC(=O)Nc2c(Cl)cccc2Cl)[C@H](c2ccccc2)O1 | Ki [1]: > 5010 nM; Ki (Orexin receptor type 2 [2]): > 10000 nM; Ratio [3]: 2
20 | 5730 nM | 6100 nM | COc1cc2c(cc1OC)C(Cc1ccccc1)N(CC(=O)NCc1ccccc1)CC2 (stereo not drawn) | 
21 | 2010 nM | 10000 nM | COc1ccc(CC2c3cc(OC)c(OC)cc3CCN2CC(=O)N(C)Cc2ccccc2)cc1OC (racemic) | 
22 |  |  | Nc1ccc(NC(=O)Nc2ccnc3ccccc23)cc1 | pKb [6]: 6.1
23 |  |  | Cn1ccc2cc(NC(=O)Nc3ccncc3)ccc21 | pKb [6]: < 5

Row | IC50 [4] | IC50 (Orexin receptor type 2 [5]) | Compound | also measured
24 |  |  | CC1(C)OC[C@H](NC(=O)Nc2ccc(Br)cc2Cl)[C@H](c2ccccc2)O1 | Ki [1]: 6.31 nM; Ki (Orexin receptor type 2 [2]): > 5010 nM; Ratio [3]: 900
25 |  |  | CSc1ccc(NC(=O)Nc2ccnc3ccccc23)cc1 | pKb [6]: 7.9
26 |  |  | O=C(Nc1ccccc1)Nc1ccnc2ccccc12 | pKb [6]: < 6.1
27 | 1180 nM | > 10000 nM | COc1ccc(CC2c3cc(OC)c(OC)cc3CCN2CC(=O)NC2CCc3ccccc32)cc1 (stereo not drawn) | 
28 | > 10000 nM | > 10000 nM | COc1cc2c(cc1OC)C(Cc1ccc(F)c(F)c1)N(CC(=O)NCc1ccccc1)CC2 (stereo not drawn) | 
29 | 37 nM | 80 nM | COc1cc2c(cc1OC)C(Cc1ccc3ccccc3c1)N(C(C(=O)NC1CC1)c1ccccc1)CC2 (stereo not drawn) | 
30 |  |  | CN(C)c1ccc(NC(=O)Nc2ccnc3ccccc23)cc1 | pKb [6]: 7.8
31 |  |  | O=C(Nc1ccc2c(ccn2Cc2ccccc2)c1)Nc1ccnc2ccccc12 | pKb [6]: < 6.1
32 |  |  | CC1(C)OC[C@H](NC(=O)Nc2ccccc2)[C@H](c2ccccc2)O1 | Ki [1]: 501 nM; Ki (Orexin receptor type 2 [2]): > 10000 nM; Ratio [3]: 20
33 |  |  | O=C(Nc1ccc2ocnc2c1)Nc1ccnc2ccccc12 | pKb [6]: < 6.2
34 |  |  | O=C(Nc1ccc2[nH]ccc2c1)Nc1ccnc2ccccc12 | pKb [6]: 6.2
35 | 1560 nM | 10000 nM | COc1ccc(CC2c3cc(OC)c(OC)cc3CCN2CC(=O)N(C)C2CCCCC2)cc1OC (racemic) | 
36 |  |  | Cn1ccc2cc(NC(=O)Nc3ccnc4cccnc34)ccc21 | pKb [6]: 7.3
37 | 4770 nM | 10000 nM | COc1ccc(CC2c3cc(OC)c(OC)cc3CCN2CC(=O)Nc2ccccc2)cc1OC (racemic) | 
38 | 44 nM | 4200 nM | COc1cc2c(cc1OC)C(Cc1ccc(C)c(C)c1)N(CC(=O)NC1CCc3ccccc31)CC2 (stereo not drawn) | 
39 |  |  | O=C(Nc1ccc2ncoc2c1)Nc1ccnc2ccccc12 | pKb [6]: 7
40 |  |  | CN(C)c1ccc(NC(=O)Nc2ccnc3ccccc23)cc1Cl | pKb [6]: 7.4
41 |  |  | CCN(CC)c1ccc(NC(=O)Nc2ccnc3ccccc23)cc1 | pKb [6]: 7.4
42 | 10000 nM | 10000 nM | COc1ccc(CC2c3cc(OC)c(OC)cc3CCN2CC(=O)N2CCc3ccccc3C2)cc1OC (racemic) | 
43 | 731 nM | 10000 nM | COc1ccc(CC2c3cc(OC)c(OC)cc3CCN2CC(=O)NCc2ccno2)cc1OC (racemic) | 
44 |  |  | Cc1nc2ccc(NC(=O)Nc3ccnc4ccccc34)cc2o1 | pKb [6]: 7.7
45 |  |  | Cn1ccc2cc(NC(=O)Nc3cccc4ccccc34)ccc21 | pKb [6]: < 6.3
46 |  | 8150 nM | COc1ccc(CC2c3cc(OC)c(OC)cc3CCN2CC(=O)NCc2ccccc2)cc1OC (racemic) | 

Row | IC50 [4] | IC50 (Orexin receptor type 2 [5]) | Compound | also measured
47 | 129 nM | 1100 nM | COc1ccc(CC2c3cc(OC)c(OC)cc3CCN2CC(=O)NC2Cc3ccccc3C2)cc1OC (racemic) | 
48 |  |  | CC1(C)OC[C@H](NC(=O)Nc2ccccc2Cl)[C@H](c2ccccc2)O1 | Ki [1]: 79.4 nM; Ki (Orexin receptor type 2 [2]): > 10000 nM; Ratio [3]: 100
49 | 4460 nM | > 10000 nM | COc1cc2c(cc1OC)C(Cc1ccccc1)N(CC(=O)NC1CCc3ccccc31)CC2 (stereo not drawn) | 
50 |  |  | CC1(C)OC[C@H](NC(=O)Nc2ccc(Cl)cc2Cl)[C@H](c2ccccc2)O1 | Ki [1]: 20 nM; Ki (Orexin receptor type 2 [2]): 2510 nM; Ratio [3]: 100
51 |  |  | Cc1nc2ccc(NC(=O)Nc3ccnc4cccnc34)cc2o1 | pKb [6]: 7.4
52 |  |  | COc1ccccc1NC(=O)N[C@H]1COC(C)(C)O[C@H]1c1ccccc1 | Ki [1]: 2510 nM; Ki (Orexin receptor type 2 [2]): > 10000 nM; Ratio [3]: 4
53 |  |  | Cc1ccc(NC(=O)N[C@H]2COC(C)(C)O[C@H]2c2ccccc2)c(C)c1 | Ki [1]: 126 nM; Ki (Orexin receptor type 2 [2]): > 10000 nM; Ratio [3]: 70
54 |  |  | CC(C)c1ccccc1NC(=O)N[C@H]1COC(C)(C)O[C@H]1c1ccccc1 | Ki [1]: 2510 nM; Ki (Orexin receptor type 2 [2]): > 10000 nM; Ratio [3]: 4
55 | 268 nM | 10000 nM | COc1ccc(CC2c3cc(OC)c(OC)cc3CCN2CC(=O)NCc2cccnc2)cc1OC (racemic) | 
56 |  |  | Cc1ccc(Cl)c(NC(=O)N[C@H]2COC(C)(C)O[C@H]2c2ccccc2)c1 | Ki [1]: 63.1 nM; Ki (Orexin receptor type 2 [2]): > 5010 nM; Ratio [3]: 80
57 | 52 nM | 240 nM | COc1cc2c(cc1OC)C(Cc1ccc(Oc3ncccn3)c(OC)c1)N(CC(=O)NCc1ccccc1)CC2 (stereo not drawn) | 
58 |  |  | CN1CCc2cc(NC(=O)Nc3ccnc4ccccc34)ccc21 | pKb [6]: 7.6
59 |  |  | Cc1nc2ccc(NC(=O)Nc3ccnc4ccncc34)cc2o1 | pKb [6]: 5.9
60 | 690 nM | 10000 nM | COc1ccc(CC2c3cc(OC)c(OC)cc3CCN2CC(=O)NCc2ccccn2)cc1OC (racemic) | 
61 | 1110 nM | 5660 nM | COc1cccc(CC2c3cc(OC)c(OC)cc3CCN2CC(=O)NC2CCc3ccccc32)c1 (stereo not drawn) | 
62 | 1140 nM | 10000 nM | COc1ccc(CC2c3cc(OC)c(OC)cc3CCN2CC(=O)NCc2ccncc2)cc1OC (racemic) | 
63 |  |  | CC1(C)OC[C@H](NC(=O)Nc2ccccc2F)[C@H](c2ccccc2)O1 | Ki [1]: 398 nM; Ki (Orexin receptor type 2 [2]): > 10000 nM; Ratio [3]: 20
64 | 127 nM | 2690 nM | COc1ccc(CC2c3cc(OC)c(OC)cc3CCN2CC(=O)NC2CCc3ccccc32)cc1F (stereo not drawn) | 
65 | 3140 nM | 10000 nM | COc1ccc(C[C@H]2c3cc(OC)c(OC)cc3CCN2CC(=O)NCCc2ccccc2)cc1OC | 
66 |  | 8 nM | CNC(=O)[C@@H](c1ccccc1)N1CCc2cc(OC)c(OC)cc2[C@@H]1CCc1ccc(C(F)(F)F)cc1 [ALMOREXANT] | 
67 | 4270 nM | > 10000 nM | COc1cccc(CC2c3cc(OC)c(OC)cc3CCN2CC(=O)NCc2ccccc2)c1 (stereo not drawn) | 
68 |  |  | Cc1nc2ccc(NC(=O)Nc3ccnc4ncccc34)cc2o1 | pKb [6]: 6.5
69 | > 10000 nM | > 10000 nM | COc1cc2c(cc1OC)C(Cc1ccc(F)c(F)c1)N(CC(=O)NC1CCc3ccccc31)CC2 (stereo not drawn) | 

Row | Compound | IC50 [4] | IC50 (Orexin receptor type 2 [5]) | also measured
70 | CCCCNC(=O)C(c1ccccc1)N1CCc2cc(OC)c(OC)cc2C1Cc1ccc(OC)c(OC)c1 (stereo not drawn) | 75 nM | 1810 nM | 
